These results are taken from paper PMC10511702, “Design, molecular modelling and synthesis of novel benzothiazole derivatives as BCL-2 inhibitors” (Scientific Reports, 2023).

Bounds are passed on as bounds.

One series deals with T1, recombinant BCL-2 (Homo sapiens, UniProt P10415).
T1 construct: purchased BPS Bioscience 50272
Kind of series: In vitro BCL-2 inhibitory activity, TR-FRET assay (BPS Bioscience). In kind it is binding. Conditions: for IC50: 5 concentrations 1 nM-10 µM; for inhibition at 10 µM: single dose of 10 µM. As for the experimental part: The in vitro enzyme inhibition determination for the synthesized compounds was carried out in BPS Bioscience Corporation, San Diego, CA, USA (www.bpsbioscience.com). […] The assay was performed by TR-FRET technology using a recombinant BCL-2 and a peptide- ligand substrate. The TR-FRET signal from the assay is correlated with the amount of Ligand binding to BCL-2. […] All of the binding reactions were conducted at room temperature. […] The reaction mixture incubated for 180 min prior to reading the TR-FRET signal. For the background, ligand was replaced with assay buffer. Fluorescence signals for both the donor and acceptor dyes were measured using a Tecan Infinite M1000 plate reader. TR-FRET was recorded as the ratio of the fluorescence of the acceptor and the donor dyes (acceptor/donor). Binding experiments were performed in duplicate at each concentration. The TR-FRET data were analyzed using the computer software, Graphpad Prism. In the absence of the compound in wells containing BCL-2 ligand, the TR-FRET signal (Ft) in each data set was defined as 100% activity. In wells without peptide ligand, the TR-FRET signal (Fb) in each data set was defined as 0% activity. The percent activity in the presence of each compound was calculated according to the following equation: % activity = [(F − Fb)/ (Ft − Fb)] × 100, where F = the TR-FRET signal in the presence of the compound. The percent inhibition was calculated according to the following equation: % inhibition = 100—% activity. IC50 determination for target compounds against BCL-2 was calculated. […] The IC50 value was determined by the concentration causing a half-maximal percent activity.

A further series concerns CCRF-CEM. Description: NCI in vitro anti-proliferative single dose screen. The class given is cell-based, human. Conditions: single dose of 10 µM. On the procedure: (§1) The national cancer institute (NCI) in vitro anticancer screening is a two-stage process, beginning with the evaluation of the selected compounds 13c and 13d against NCI leukemia cell line at a single dose of 10 µM. The human leukemia cell line was obtained and maintained at the NCI. The output from the single dose screen is reported as a mean graph. The detailed assay protocol is discussed in the supporting material.
(§2) This assay was performed for compounds 13c and 13d by the Developmental Therapeutics Program (DTP) of the National Cancer Institute (NCI), division of cancer treatment and diagnosis, NIH, Bethesda, Maryland, USA (www.dtp.nci.nih.gov). The operation of this screen utilizes leukemia human tumor cell line[37]. The human tumor cell lines of the cancer screening panel were grown in RPMI 1640 medium containing 5% fetal bovine serum and 2 mM L-glutamine.
(§3) Results for the two compounds were reported as a mean graph of the percent growth of the treated cells when compared to the untreated control cells. The results are expressed as cell growth percent for the tested compounds on each of the used NCI cell line panels.
(§4) The human tumor cell lines of the cancer screening panel were grown in RPMI 1640 medium containing 5% fetal bovine serum and 2 mM L-glutamine. For a typical screening experiment, cells are inoculated into 96 well microtiter plates in 100 µL at plating densities ranging from 5,000 to 40,000 cells/well depending on the doubling time of individual cell lines. After cell inoculation, the microtiter plates are incubated at 37° C, 5 % CO2, 95 % air and 100 % relative humidity for 24 hrs prior to addition of experimental drugs. After 24 hrs, two plates of each cell line are fixed in situ with trichloroacetic acid (TCA), to represent a measurement of the cell population for each cell line at the time of drug addition (Tz). Experimental drugs are solubilized in dimethyl sulfoxide at 400-fold the desired final maximum test concentration and stored frozen prior to use. At the time of drug addition, an aliquot of frozen concentrate is thawed and diluted to twice the desired final maximum test concentration with complete medium containing 50 µg/mL gentamicin. Additional four, 10-fold or ½ log serial dilutions are made to provide a total of five drug concentrations plus control. Aliquots of 100 µl of these different drug dilutions are added to the appropriate microtiter wells already containing 100 µl of medium, resulting in the required final drug concentrations.
(§5) Following drug addition, the plates are incubated for an additional 48 hrs at 37°C, 5 % CO2, 95 % air, and 100 % relative humidity. For adherent cells, the assay is terminated by the addition of cold TCA. Cells are fixed in situ by the gentle addition of 50 µl of cold 50 % (w/v) TCA (final concentration, 10 % TCA) and incubated for 60 minutes at 4°C. The supernatant is discarded, and the plates are washed five times with tap water and air dried. Sulforhodamine B (SRB) solution (100 µl) at 0.4 % (w/v) in 1 % acetic acid is added to each well, and plates are incubated for 10 minutes at room temperature. After staining, unbound dye is removed by washing five times with 1 % acetic acid and the plates are air dried. Bound stain is subsequently solubilized with 10 mMtrizma base, and the absorbance is read on an automated plate reader at a wavelength of 515 nm. For suspension cells, the methodology is the same except that the assay is terminated by fixing settled cells at the bottom of the wells by gently adding 50 µl of 80 % TCA (final concentration, 16 % TCA).
(§6) Using the seven absorbance measurements [time zero, (Tz), control growth, (C), and test growth in the presence of drug at the five concentration levels (Ti)], the percentage growth is calculated at each of the drug concentrations levels. Percentage growth inhibition is calculated as: […]

The test system of another series is HL-60(TB). Description: NCI in vitro anti-proliferative single dose screen. In kind it is cell-based, human. The following applies: single dose of 10 µM. As for the experimental part:
as §1, §2, §3, §4, §5, §6

Another series has as its system K-562. Kind of series: NCI in vitro anti-proliferative single dose screen. Conditions: K-562, single dose of 10 µM. In kind it is cell-based, human. On the procedure:
as §1, §2, §3, §4, §5, §6

The next series has as its system MOLT-4. Description: NCI in vitro anti-proliferative single dose screen. In kind it is cell-based, human. The following applies: MOLT-4, single dose of 10 µM. As for the experimental part: as §1, §2, §3, §4, §5, §6
For a further series, the system named is RPMI-8226. Kind of series: NCI in vitro anti-proliferative single dose screen. In kind it is cell-based, human. Conditions: RPMI-8226, single dose of 10 µM. As for the experimental part:
as §1, §2, §3, §4, §5, §6

The subject of a further series is SR. Kind of series: NCI in vitro anti-proliferative single dose screen. The class given is cell-based, human. The following applies: single dose of 10 µM; for Cell growth percent: SR. On the procedure:
as §1, §2, §3, §4, §5, §6

For a further series, the system named is BCL-2. The following applies: cited from earlier work.
In a further series the test system is NCI leukemia cell line. Kind of series: NCI in vitro anti-proliferative screen, leukemia panel as a whole. In kind it is cell-based, human. The following applies: single dose of 10 µM. On the procedure:
as §1
This assay was performed for compounds 13c and 13d by the Developmental Therapeutics Program (DTP) of the National Cancer Institute (NCI), division of cancer treatment and diagnosis, NIH, Bethesda, Maryland, USA (www.dtp.nci.nih.gov). The operation of this screen utilizes leukemia human tumor cell line[37]. […]
Results for the two compounds were reported as a mean graph of the percent growth of the treated cells when compared to the untreated control cells. The results are expressed as cell growth percent for the tested compounds on each of the used NCI cell line panels. […]
Following drug addition, the plates are incubated for an additional 48 hrs at 37°C, 5 % CO2, 95 % air, and 100 % relative humidity. […] Bound stain is subsequently solubilized with 10 mMtrizma base, and the absorbance is read on an automated plate reader at a wavelength of 515 nm. […]

T1 sequence (P10415 whole entry): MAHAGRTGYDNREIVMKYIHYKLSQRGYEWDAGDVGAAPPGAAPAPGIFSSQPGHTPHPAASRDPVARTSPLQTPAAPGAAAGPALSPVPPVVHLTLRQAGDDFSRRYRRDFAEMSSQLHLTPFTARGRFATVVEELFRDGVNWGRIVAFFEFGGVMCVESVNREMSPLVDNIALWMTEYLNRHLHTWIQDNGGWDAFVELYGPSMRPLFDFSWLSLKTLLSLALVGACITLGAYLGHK

As for `O=C(Nc1ccc(OCc2ccc(C(F)(F)F)cc2)cc1)c1ccc2nc(NC(=O)c3ccc(NCCc4ccccc4)c([N+](=O)[O-])c3)sc2c1` [13d, N-(4-((4-Trifluoromethylbenzyl)oxy)phenyl)-2-(3-nitro-4-(phenethylamino)benzamido)-benzo[d]thiazole-6-carboxamide], the melting point fell in the range of 218 to 220 °C. Also, the 50% inhibitory concentration (IC50) on recombinant BCL-2 stood at 363 nM. The compound also returned a Cell growth percent in the series on CCRF-CEM of 68.2%. Besides, the Cell growth percent in the series with HL-60(TB) is reported as 96.87%. In addition, the Cell growth percent in the series on K-562 came to 67.92%. The compound also returned a Cell growth percent with MOLT-4 of 74.37%. The Cell growth percent with RPMI-8226 was 69.86%. Moreover, the inhibition at 10 µM with SR (Homo sapiens, leukemic SR cell lines, read-out: growth inhibition) is 62.9%. This compound returned a Cell growth percent in the series on SR of 37.13%.

`CCCCc1c(-c2ccc(C(=O)NS(=O)(=O)c3ccc4ccccc4c3)cc2C(=O)N2CCc3ccccc3C2)c(CO)nn1-c1ccc(Oc2cccc(Cl)c2)cc1` [Compound 1] returned a melting point of 42 to 44 °C. Also, the IC50 with BCL-2 was 6 nM.

Consider `O=C(Nc1ccc(Oc2ccc(Br)cc2)cc1)c1ccc2nc(NC(=O)c3ccc(NCCc4ccccc4)c([N+](=O)[O-])c3)sc2c1` [14b], for which the melting point was 212 to 214 °C. In addition, the inhibition at 10 µM at recombinant BCL-2 was found to be 47%.

As for `Cc1ccc(NC(=O)Nc2ccc3nc(NS(=O)(=O)c4ccc5ccccc5c4)sc3c2)cc1Cl` [17j, N-(6-(3-(3-Chloro-4-methylphenyl)ureido)benzo[d]thiazol-2-yl)naphthalene-2-sulfonamide], the melting point is ≥ 300 °C. Besides, the inhibition at 10 µM at recombinant BCL-2 was 9%.

For the compound `Cc1ccc(COc2ccc(NC(=O)c3ccc4nc(NC(=O)c5ccc(NCCc6ccccc6)c([N+](=O)[O-])c5)sc4c3)cc2)cc1` [13c, N-(4-((4-Methylbenzyl)oxy)phenyl)-2-(3-nitro-4-(phenethylamino)benzamido)benzo-[d]thiazole-6-carboxamide], the melting point fell in the range of 138 to 140 °C. For the same compound, at recombinant BCL-2, the concentration for half-maximal inhibition (IC50) is 471 nM and the inhibition at 10 µM was 84%. In the series on CCRF-CEM, this compound gave a Cell growth percent of 93.91%. For the same compound, in the series on HL-60(TB), the Cell growth percent is recorded as 75.74%. In the series on K-562, the Cell growth percent is 87.23%. For the same compound, in the series on MOLT-4, the Cell growth percent is recorded as 94.74%. In addition, in the series with RPMI-8226, the Cell growth percent is reported as 87.5%. Further, the Cell growth percent in the series on SR is recorded as 82.5%. The “inhibition against the used leukemia cell line (in words)” value in the series with NCI leukemia cell line was “poor inhibition”.

Regarding `COc1cccc(NC(=O)Nc2ccc3nc(NS(=O)(=O)c4ccc5ccccc5c4)sc3c2)c1` [17d, N-(6-(3-(3-Methoxyphenyl)ureido)benzo[d]thiazol-2-yl)naphthalene-2-sulfonamide], the melting point is ≥ 300 °C. Also, the inhibition at 10 µM on recombinant BCL-2 is 7%.

Compound `O=C(Nc1nc2ccc(C(=O)N3CCN(C(=O)C4CCCO4)CC3)cc2s1)c1ccc(NCCc2ccccc2)c([N+](=O)[O-])c1` (centres unmarked) [12e, 3-Nitro-4-(phenethylamino)-N-(6-(4-(tetrahydrofuran-2-carbonyl)piperazine-1-carbonyl)-benzo[d]thiazol-2-yl)benzamide] displayed a melting point of 134 to 136 °C. Moreover, the inhibition at 10 µM on recombinant BCL-2 came out at 8%.

Consider `O=C(Nc1ccc(OCc2ccc(C(F)(F)F)cc2)cc1)c1ccc2nc(NS(=O)(=O)c3ccc4ccccc4c3)sc2c1` [8f, N-(4-((4-Trifluormethylbenzyl)oxy)phenyl)-2-(naphthalene-2-sulfonamido)benzo-[d]thiazole-6-carboxamide], for which the melting point is ≥ 300 °C. Further, the inhibition at 10 µM on recombinant BCL-2 came to 14%.

`O=C(c1ccc2nc(NS(=O)(=O)c3ccc4ccccc4c3)sc2c1)N1CCN(C(c2ccccc2)c2ccccc2)CC1` [7f, N-(6-(4-Benzhydrylpiperazine-1-carbonyl)benzo[d]thiazol-2-yl)naphthalene-2-sulfonamide] had a melting point of 200 to 202 °C. Moreover, the inhibition at 10 µM on recombinant BCL-2 is 7%.

`Cc1cccc(NC(=O)Nc2ccc3nc(NS(=O)(=O)c4ccc5ccccc5c4)sc3c2)c1` [17e, N-(6-(3-(m-Tolyl)ureido)benzo[d]thiazol-2-yl)naphthalene-2-sulfonamide]: the melting point was ≥ 300 °C. For the same compound, the inhibition at 10 µM on recombinant BCL-2 is 0%.

Compound `O=C(Nc1ccc(OCc2cccc(F)c2)cc1)c1ccc2nc(NS(=O)(=O)c3ccc4ccccc4c3)sc2c1` [8a, N-(4-((3-Fluorobenzyl)oxy)phenyl)-2-(naphthalene-2-sulfonamido)-benzo[d]thiazole-6-carboxamide] registered a melting point of 146 to 148 °C. In addition, the inhibition at 10 µM at recombinant BCL-2 is 41%.

Regarding `O=C(Nc1ccc(Cl)c(C(F)(F)F)c1)Nc1ccc2nc(NS(=O)(=O)c3ccc4ccccc4c3)sc2c1` [17g, N-(6-(3-(4-Chloro-3-(trifluoromethyl)phenyl)ureido)benzo[d]thiazol-2-yl)naphthalene-2-sulfonamide], the melting point was ≥ 300 °C. In addition, the inhibition at 10 µM on recombinant BCL-2 worked out at 18%.

In turn, `O=C(c1ccc2nc(NS(=O)(=O)c3ccc4ccccc4c3)sc2c1)N1CCN(C(=O)C2CCCO2)CC1` (centres unmarked) [7i, N-(6-(4-(Tetrahydrofuran-2-carbonyl)piperazine-1-carbonyl)benzo[d]thiazol-2-yl)naphthalene-2-sulfonamide] gave a melting point of 230 to 232 °C. Besides, the inhibition at 10 µM on recombinant BCL-2 came to 4%.

As usually defined, the IC50 is the point on the concentration scale where inhibition reaches its midpoint. By inhibition is commonly meant the relative decrease from the control value, in per cent. In general, melting point refers to the temperature of the solid-liquid transition.
